This experiment deals with T1, PLA2 (Homo sapiens, UniProt P14555).
T1 construct: The enzyme is isolated from human platelets; from tissue; host or cells: human platelets
T1 sequence (P14555 21-144): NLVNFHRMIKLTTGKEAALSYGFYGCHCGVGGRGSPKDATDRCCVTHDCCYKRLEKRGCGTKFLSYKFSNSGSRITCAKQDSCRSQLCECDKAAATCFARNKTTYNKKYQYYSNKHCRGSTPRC
Kind of experiment: PLA2 Inhibition Assay (14C-oleate labeled E. coli membrane substrate). The class given is biochemical. Particulars: enzyme isolated from human platelets. As to the method: The method used is similar to that reported by Franson, et al. [Jesse, R. L. and Franson R. C., Biochim. Biophys. Acta 575:467-470 (1979); Franson, R. C., Patriarca, P., and Elsback, P., J. Lipid Res. 15: 380-388 (1974)]. The enzyme is isolated from human platelets. The substrate used consists of ^14 C-oleate labeled Escherichia coli membranes. E. coli cells are grown in the presence of ^14 C-oleic acid and then autoclaved to prepare the membranes.
Various concentrations of test compounds are pre-incubated with PLA2 (3.6 μg/mL in a buffer consisting of 25 mM HEPES (pH 7)), 150 mM NaCl, 5.0 mM CaCl2, and 10% DMSO (v/v, test compound solvent) at 37° C. for 7 minutes. The E. coli membrane substrate is then added (0.1 mM phospholipid, 0.005 μCi ^14 C) and the reaction is then incubated at 37° C. for 30 minutes. The reaction is then terminated by the addition of 1.9 mL tetrahydrofuran (THF), and the entire solution is applied to a solid-phase extraction column (aminopropyl resin, Analytichem). The column is rinsed with an additional 1 mL of THF. The free fatty acid product of the reaction is then eluted from the column with 1 mL of 2% acetic acid in THF and collected in a scintillation vial. The amount of free fatty acid product is determined by liquid scintillation counting. The amount of inhibition produced by the test compound is calculated by comparing the counts obtained in the presence of the compound to those obtained in its absence (solvent only). Background counts were determined by performing incubations in the absence of enzyme.
Percent inhibition is determined by the equation: [formula]

Where [1] appears, read: Table 2, Structure 14 (Type IA).
[2] abbreviates: Table 3, Structure 18 (Type IB).
Where [3] appears, read: Table 4, Structure 20 (Type IB).

The structures appear in SMILES notation.

What is called inhibition is how much of the control response was suppressed. Read a high inhibition as a strong effect.

Molecule `COc1cc(/C=C(/C=C\C(=O)O)c2cccc(C(F)(F)F)c2)ccc1C12CC3CC(CC(C3)C1)C2` [Structure 14p, (2Z),(4Z)-4-(3-Trifluoromethylphenyl)-5-[-4-(1-adamantyl)-3-methoxyphenyl]-2,4-pentadienoic acid] showed an inhibition at 100 µM under setting [1] of 93%.
Still for that read-out and setting: with `O=C(O)/C=C\C(=C\CCc1ccc(C23CC4CC(CC(C4)C2)C3)c(O)c1)c1cccc(C(F)(F)F)c1` [Structure 14q, (2Z),(4Z)-4-(3-Trifluoromethylphenyl)-7-[4-(1-adamantyl)-3-hydroxyphenyl]-2,4-heptadienoic acid] the figure was 100%; with `CCCCCOc1cc(CC/C=C(/C=C\C(=O)O)c2cccc(C(F)(F)F)c2)ccc1C12CC3CC(CC(C3)C1)C2` [Structure 14r, (2Z),(4Z)-4-(3-Trifluoromethylphenyl)-7-[4-(1-adamantyl)-3-pentyloxyphenyl]-2,4-heptadienoic acid], 95%; with `O=C(O)/C=C\C(=C\CCc1ccc(C23CC4CC(CC(C4)C2)C3)c(OCc2cc(F)cc(F)c2)c1)c1cccc(C(F)(F)F)c1` [Structure 14s, (2Z),(4Z)-4-(3-Trifluoromethylphenyl)-7-[4-(1-adamantyl)-3-(3,5-difluorobenzyloxy)phenyl]-2,4-heptadienoic acid], 100%.
Still for that read-out and setting: with `COc1ccc(COc2cc(CC/C=C(/C=C\C(=O)O)c3cccc(C(F)(F)F)c3)ccc2C23CC4CC(CC(C4)C2)C3)cc1` [Structure 14t, (2Z),(4Z)-4-(3-Trifluoromethylphenyl)-7-[4-(1-adamantyl)-3-(4-methoxybenzyloxy)phenyl]-2,4-heptadienoic acid] the figure was 100%.
Same read-out and setting: to `O=C(O)/C=C\C(=C\CCc1ccc(C23CC4CC(CC(C4)C2)C3)c(OCc2ccccc2)c1)c1cccc(C(F)(F)F)c1` [Structure 14u, (2Z),(4Z)-4-(3-Trifluoromethylphenyl)-7-[4-(1-adamantyl)-3-benzyloxyphenyl]-2,4-heptadienoic acid] belongs 100%; to `O=C(O)/C=C\C(=C\CCc1ccc(C23CC4CC(CC(C4)C2)C3)c(OCC(=O)O)c1)c1cccc(C(F)(F)F)c1` [Structure 14v, (2Z),(4Z)-4-(3-Trifluoromethylphenyl)-7-[4-(1-adamantyl)-3-(carboxymethoxy)phenyl]-2,4-heptadienoic acid], 100%.
In the case of `CC1(C)CCC(C)(C)c2cc(/C=C(/C=C/C(=O)O)c3cccc(C(=O)O)c3)ccc21` [Structure 18a, (2E),(4Z)-4-(3-Carboxyphenyl)-5-(5,6,7,8-tetrahydro-5,5,8,8-tetramethyl-2-naphthalenyl)-2,4-pentadienoic acid], under setting [2], the inhibition at 100 µM came to 27%.
The same measure, in the same setting: with `CC1(C)CCC(C)(C)c2cc3cc(/C=C(/C=C/C(=O)O)c4cccc(C(=O)O)c4)ccc3cc21` [Structure 18b, (2E),(4Z)-4-(3-Carboxyphenyl)-5-(5,6,7,8-tetrahydro-5,5,8,8-tetramethyl-2-anthracenyl)-2,4-pentadienoic acid] the figure was 100%; with `CCCCCOc1ccc(/C=C(/C=C/C(=O)O)c2cccc(C(=O)O)c2)cc1OCCCCC` [Structure 18c, (2E),(4Z)-4-(3-Carboxyphenyl)-5-(3,4-bispentyloxyphenyl)-2,4-pentadienoic acid], 70%; with `CCCCCCCCCCOc1ccc(/C=C(/C=C/C(=O)O)c2cccc(C(=O)O)c2)cc1OCCCCCCCCCC` [Structure 18d, (2E),(4Z)-4-(3-Carboxyphenyl)-5-(3,4-bisdecyloxyphenyl)-2,4-pentadienoic a cid], 91%.
On the same count and under the same terms, to `CC1(C)CCC(C)(C)c2cc(CC/C=C(/C=C/C(=O)O)c3cccc(C(=O)O)c3)ccc21` [Structure 18e, (2E),(4Z)-4-(3-Carboxyphenyl)-7-(5,6,7,8-tetrahydro-5,5,8,8-tetramethyl-2-naphthalenyl)-2,4-heptadienoic acid] belongs 55%.
In turn, `CC1(C)CCC(C)(C)c2cc(CC/C=C(/C=C/C(=O)O)c3cccc(C(F)(F)F)c3)ccc21` [Structure 20a, (2E),(4Z)-4-(3-Trifluoromethylphenyl)-7-(5,6,7,8-tetrahydro-5,5,8,8-tetramethyl-2-naphthalenyl)-2,4-heptadienoic acid] showed an inhibition at 100 µM under setting [3] of 52%.
As for `CC1(C)CCC(C)(C)c2cc(CC/C=C(/C=C/C(=O)O)c3ccc(F)cc3)ccc21` [Structure 20b], 100 µM produced 73% inhibition under setting [3].
In turn, `CC1(C)CCC(C)(C)c2cc(CC/C=C(/C=C/C(=O)O)c3cccc(F)c3)ccc21` [Structure 20c, (2E),(4Z)-4-(3-Fluorophenyl)-7-(5,6,7,8-tetrahydro-5,5,8,8-tetramethyl-2-naphthalenyl)-2,4-heptadienoic acid] had an inhibition at 100 µM under setting [3] of 67%.
Still for that read-out and setting: with `CC1(C)CCC(C)(C)c2cc(CC/C=C(/C=C/C(=O)O)c3ccccc3)ccc21` [Structure 20d, (2E),(4Z)-4-Phenyl-7-(5,6,7,8-tetrahydro-5,5,8,8-tetramethyl-2-naphthalenyl)-2,4-heptadienoic acid] the figure was 62%; with `COc1ccc(CC/C=C(/C=C/C(=O)O)c2cccc(C(F)(F)F)c2)cc1C12CC3CC(CC(C3)C1)C2` [Structure 20e, (2Z),(4Z)-4-(3-Trifluoromethylphenyl)-7-[3-(1-adamantyl)-4-methoxyphenyl]-2,4-heptadienoic acid], 81%; with `COc1cc(CC/C=C(/C=C/C(=O)O)c2cccc(C(F)(F)F)c2)ccc1C12CC3CC(CC(C3)C1)C2` [Structure 20f, (2Z),(4Z)-4-(3-Trifluoromethylphenyl)-7-[4-(1-adamantyl)-3-methoxyphenyl]-2,4-heptadienoic acid], 90%.
As to `CC1(C)CCC(C)(C)c2cc(CC/C=C(/CCC(=O)O)c3cccc(C(F)(F)F)c3)ccc21` [Structure 40, (Z)-4-(3-trifluoromethylphenyl)-7-(5,6,7,8-tetrahydro-5,5,8,8-tetramethyl-2-naphthalenyl)-4-heptenoic acid], where the note is “Table 6, Structure 40 (Type ID), 100 μm as printed”, the “% Inhibition of PLA2 AT 100 μm” value stood at 79%.
